Test results from ChEMBL document CHEMBL1201862, “PubChem BioAssay data set” (2004).
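Test compounds were applied to cells in 96-well plates for 48 hours at 5 doses. At the GI50, growth is halved.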 Activity calls are given as the source filed them. No stated cut-off is given here; in the data, active = GI50 up to about 1.1 µM and inactive = higher.

What was measured:
Test in all cases: inhibition of tumour cell growth, NCI panel, 48 h
SW-620 = test system: SW-620
COLO 205 = test system: COLO 205
Malme-3M = test system: Malme-3M
OVCAR-8 = test system: OVCAR-8
DU-145 = test system: DU-145
T47D = test system: T47D
HCC 2998 = test system: HCC 2998
SK-MEL-2 = test system: SK-MEL-2
UACC-257 = test system: UACC-257
SK-MEL-28 = test system: SK-MEL-28
MOLT-4 = test system: MOLT-4
Hs-578T = test system: Hs-578T
M14 = test system: M14
LOX IMVI = test system: LOX IMVI
NCI-H23 = test system: NCI-H23
MCF7 = test system: MCF7
TK-10 = test system: TK-10
SF-295 = test system: SF-295
U-251 = test system: U-251
UO-31 = test system: UO-31

| Compound | GI50 (SW-620) | GI50 (COLO 205) | GI50 (Malme-3M) | GI50 (OVCAR-8) | GI50 (DU-145) | GI50 (T47D) | GI50 (HCC 2998) | GI50 (SK-MEL-2) | GI50 (UACC-257) | GI50 (SK-MEL-28) | GI50 (MOLT-4) | GI50 (Hs-578T) | GI50 (M14) | GI50 (LOX IMVI) | GI50 (NCI-H23) | GI50 (MCF7) | GI50 (TK-10) | GI50 (SF-295) | GI50 (U-251) | GI50 (UO-31) |
| --- | --- | --- | --- | --- | --- | --- | --- | --- | --- | --- | --- | --- | --- | --- | --- | --- | --- | --- | --- | --- |
| O=[N+]([O-])c1ccc2c(c1)n1c(N3CCCC3)[n+]3ccccc3c1c1c3ccccn3c(N3CCCC3)[n+]21.[O-][Cl+3]([O-])([O-])[O-].[O-][Cl+3]([O-])([O-])[O-] | 65.9 µM (inactive) | 54 µM (inactive) | 68.9 µM (inactive) | > 100 µM (inactive) | > 100 µM (inactive) | > 100 µM (inactive) | > 100 µM (inactive) | > 100 µM (inactive) | > 100 µM (inactive) | > 100 µM (inactive) | 43.2 µM (inactive) | 83.2 µM (inactive) | > 100 µM (inactive) | > 100 µM (inactive) | > 100 µM (inactive) | 9.46 µM (inactive) | > 100 µM (inactive) | 61.4 µM (inactive) | 36.7 µM (inactive) |  |
| CC(C)Cc1ccc(C(C)/C=C2\CCC(CN3CCCCC3)C2=O)cc1 (stereo not drawn) | 3.45 µM (inactive) | 5.81 µM (inactive) | 16.6 µM (inactive) | 5.18 µM (inactive) | 16.2 µM (inactive) | 5.09 µM (inactive) | 6.37 µM (inactive) | 13.3 µM (inactive) | 12.7 µM (inactive) | 3.21 µM (inactive) | 1.63 µM (inactive) | 4.71 µM (inactive) | 6.1 µM (inactive) | 2.01 µM (inactive) | 7.29 µM (inactive) | 1.64 µM (inactive) | 3.27 µM (inactive) | 13.3 µM (inactive) | 2.14 µM (inactive) | 10.6 µM (inactive) |
| COc1ccc2nc3cc(Cl)ccc3c(NCCCCCC(=O)NC(COc3cnc4c(ccc5cccnc54)c3)COc3cnc4c(ccc5cccnc54)c3)c2c1 | 10.5 µM (inactive) | 2.79 µM (inactive) | 34.9 µM (inactive) | 31.4 µM (inactive) | 11.3 µM (inactive) | 7.29 µM (inactive) | 12.6 µM (inactive) | 14.1 µM (inactive) | 8.93 µM (inactive) | 17.6 µM (inactive) | 1.65 µM (inactive) | 50.8 µM (inactive) | 77.1 µM (inactive) | 3.72 µM (inactive) | 28.2 µM (inactive) | 5.04 µM (inactive) | 27.5 µM (inactive) | 20.8 µM (inactive) | 8.53 µM (inactive) | 74.5 µM (inactive) |
| CCc1nc(N)nc(N)c1-c1ccc(Cl)c([N+](=O)[O-])c1 | 0.0475 µM (active) | 6.71 µM (inactive) | 18.4 µM (inactive) | 0.074 µM (active) | 0.611 µM (active) | 10.5 µM (inactive) | 2.95 µM (inactive) | 17.9 µM (inactive) | 6.14 µM (inactive) | 37.9 µM (inactive) | 0.258 µM (active) | 28.1 µM (inactive) | 0.0735 µM (active) | 0.0524 µM (active) | 0.0887 µM (active) | 0.274 µM (active) | 17.9 µM (inactive) | 0.0637 µM (active) | 0.126 µM (active) | 1.18 µM (inactive) |
| S=C1/C(=N/c2ccccc2)N(c2ccccc2)/C(=N\c2cccc[n+]2Cc2ccccc2)N1c1ccccc1 | 13.9 µM (inactive) | 17.1 µM (inactive) | 14.4 µM (inactive) | 17.9 µM (inactive) | 28.1 µM (inactive) | 22.8 µM (inactive) | 13.9 µM (inactive) | 24.3 µM (inactive) | 17.3 µM (inactive) | 17.6 µM (inactive) | 8.79 µM (inactive) | 33.9 µM (inactive) | 12.9 µM (inactive) |  | 19 µM (inactive) | 18.9 µM (inactive) | 26.3 µM (inactive) | 13.4 µM (inactive) | > 10 µM (inactive) | 16.4 µM (inactive) |
| C[C@H]1CC[C@@]2(OC1)O[C@H]1C[C@H]3[C@@H]4CC[C@@H]5C[C@@H](OC6OC(CO)C(O)C(O)C6OC6OC(CO)C(O)C(O)C6O)CC[C@]5(C)[C@H]4CC[C@]3(C)[C@H]1[C@@H]2C (stereo partly drawn) | 1.77 µM (inactive) | 1.9 µM (inactive) | 2.62 µM (inactive) | 2.45 µM (inactive) | 2.34 µM (inactive) | 1.99 µM (inactive) | 2.02 µM (inactive) | 2.28 µM (inactive) | 2.15 µM (inactive) |  | 1.84 µM (inactive) | 2.44 µM (inactive) | 2.06 µM (inactive) | 1.99 µM (inactive) | 2.31 µM (inactive) | 2.1 µM (inactive) | 1.94 µM (inactive) | 2.22 µM (inactive) | 2.26 µM (inactive) | 1.99 µM (inactive) |
| COc1cc2c(cc1OC)C1=Cc3ccc(OC)c(OC)c3C(C#N)N1CC2 (stereo not drawn) | 47.6 µM (inactive) | 18.2 µM (inactive) | 22.4 µM (inactive) |  | 39.7 µM (inactive) | 9.2 µM (inactive) | 18.5 µM (inactive) | 19.7 µM (inactive) | 17.7 µM (inactive) | 32.4 µM (inactive) | 33.1 µM (inactive) | 35.8 µM (inactive) | 50.2 µM (inactive) |  | 29.8 µM (inactive) | 29.7 µM (inactive) | > 100 µM (inactive) | 37.1 µM (inactive) | 21.6 µM (inactive) | > 100 µM (inactive) |
| O=C1CC(c2cccc(F)c2)Nc2cc3c(cc21)OCO3 (stereo not drawn) | 0.0393 µM (active) | 0.0292 µM (active) | 0.0327 µM (active) | 0.0568 µM (active) | 0.0385 µM (active) | > 100 µM (inactive) | 0.0593 µM (active) | 0.0356 µM (active) | 0.0638 µM (active) |  | < 0.01 µM (active) | < 0.01 µM (active) | 0.0267 µM (active) | 0.0631 µM (active) | 0.0335 µM (active) | 0.0472 µM (active) | 1.13 µM (inactive) | 0.042 µM (active) | 0.0344 µM (active) | 0.0422 µM (active) |
| CC(=O)C1(c2ccccc2)CCN(Cn2sc3nc(C)cc(C)c3c2=O)CC1 | 24.4 µM (inactive) | 17.6 µM (inactive) | 20.3 µM (inactive) | 27.4 µM (inactive) | 31.4 µM (inactive) | 55.6 µM (inactive) | 25 µM (inactive) | 44 µM (inactive) |  | 31.6 µM (inactive) | 27.7 µM (inactive) | 30.4 µM (inactive) | 25.8 µM (inactive) | 23.8 µM (inactive) | 19.1 µM (inactive) | 40 µM (inactive) | 20.1 µM (inactive) | > 100 µM (inactive) | 42.3 µM (inactive) | 16.5 µM (inactive) |
| CSc1cc(Cl)c(C)cc1S(=O)(=O)NC(=O)NNc1ccc(Cl)cc1 | > 100 µM (inactive) | > 100 µM (inactive) | > 100 µM (inactive) | > 100 µM (inactive) | > 100 µM (inactive) | > 100 µM (inactive) | 36.2 µM (inactive) | > 100 µM (inactive) |  | > 100 µM (inactive) | 46.6 µM (inactive) | 34.1 µM (inactive) | > 100 µM (inactive) | > 100 µM (inactive) |  | > 100 µM (inactive) |  | > 100 µM (inactive) | > 100 µM (inactive) |  |
| CCCN(CCC)C1CCc2c(ccc3cc[nH]c23)C1 (stereo not drawn) | > 100 µM (inactive) | 29.8 µM (inactive) | 58.1 µM (inactive) | > 100 µM (inactive) | > 100 µM (inactive) | > 100 µM (inactive) | 23 µM (inactive) | > 100 µM (inactive) | 26.7 µM (inactive) | 31.9 µM (inactive) | 25.2 µM (inactive) | > 100 µM (inactive) | 17.7 µM (inactive) |  | > 100 µM (inactive) | 77.3 µM (inactive) | > 100 µM (inactive) | > 100 µM (inactive) | > 100 µM (inactive) | 49 µM (inactive) |
| O=C1NCCN1/N=C/c1c(Cl)n(-c2ccccc2)c2ccccc12 | 21.1 µM (inactive) | 14.3 µM (inactive) | 16.6 µM (inactive) | 22.3 µM (inactive) | 14.6 µM (inactive) | 15.2 µM (inactive) | 17.8 µM (inactive) | 25 µM (inactive) | 22.4 µM (inactive) |  | 36.9 µM (inactive) | 13.4 µM (inactive) | 17.5 µM (inactive) | 13.5 µM (inactive) | 18.5 µM (inactive) | 22.1 µM (inactive) | 14.8 µM (inactive) | 29.4 µM (inactive) | 21.7 µM (inactive) | 19.1 µM (inactive) |
| Cc1cc(N(CCC#N)CCC#N)ccc1C(/N=N\c1ccc(C(=O)O)cc1)=N\NC(=O)c1cc(Cl)ccc1O |  | > 100 µM (inactive) | 56.6 µM (inactive) | 25.3 µM (inactive) | 64 µM (inactive) | 40.7 µM (inactive) | > 100 µM (inactive) | 83.6 µM (inactive) | > 100 µM (inactive) |  | > 100 µM (inactive) | 19.7 µM (inactive) | > 100 µM (inactive) |  | 39.2 µM (inactive) | 32.4 µM (inactive) | 40.2 µM (inactive) | 12.4 µM (inactive) | 24.9 µM (inactive) | 22.1 µM (inactive) |
| O=C(Nc1ccccc1F)c1cc2ccc(O)cc2o/c1=N\c1cccc(C(F)(F)F)c1 | 3.08 µM (inactive) | 18.6 µM (inactive) | 2.69 µM (inactive) | 2.18 µM (inactive) | 4.04 µM (inactive) | 2.59 µM (inactive) | 8.2 µM (inactive) | 4.36 µM (inactive) | 4.02 µM (inactive) | 3.82 µM (inactive) | 2.94 µM (inactive) | 1.94 µM (inactive) | 5.18 µM (inactive) | 2.69 µM (inactive) | 1.76 µM (inactive) | 2.94 µM (inactive) |  | 4.99 µM (inactive) | 3.73 µM (inactive) | 3.85 µM (inactive) |
